# Measured values published in publication PMC10700596 (Nature Communications, 2023).
# Several values for one entry are separate records, joined by “and”; a condition that tells them apart may be missing. Equal values may be shown once. Read-outs that look alike come from different tables or passages of the source.
# What was measured:
# [1] = in vivo; type: in vivo, mice; conditions: mice; for CSF concentration, Final / Brain concentration, Final / Plasma concentration, Final: listed as 7827_0016, 10 mg/kg
# [2] = molecular target: EP1R (Homo sapiens, UniProt P34995); test: Radioligand (3H-PGE2) displacement assay at EP1R; type: binding
# Sequence of EP1R (P34995 whole entry): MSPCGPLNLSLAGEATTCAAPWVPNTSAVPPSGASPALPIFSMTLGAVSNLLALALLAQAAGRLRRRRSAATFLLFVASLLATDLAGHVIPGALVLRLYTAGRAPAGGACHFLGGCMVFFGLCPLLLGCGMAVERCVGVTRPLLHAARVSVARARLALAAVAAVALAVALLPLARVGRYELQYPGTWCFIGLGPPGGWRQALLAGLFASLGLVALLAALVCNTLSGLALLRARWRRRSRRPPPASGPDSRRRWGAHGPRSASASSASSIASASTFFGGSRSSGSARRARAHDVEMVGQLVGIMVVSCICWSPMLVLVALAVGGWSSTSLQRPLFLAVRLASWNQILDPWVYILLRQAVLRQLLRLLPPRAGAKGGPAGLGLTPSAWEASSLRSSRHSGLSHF
# [3] = molecular target: ABL1-phosphorylated (Homo sapiens, UniProt P00519); test: biochemical; type: binding; conditions: 10000 nM; read-out: Percent Control
# Sequence of ABL1-phosphorylated (P00519 whole entry): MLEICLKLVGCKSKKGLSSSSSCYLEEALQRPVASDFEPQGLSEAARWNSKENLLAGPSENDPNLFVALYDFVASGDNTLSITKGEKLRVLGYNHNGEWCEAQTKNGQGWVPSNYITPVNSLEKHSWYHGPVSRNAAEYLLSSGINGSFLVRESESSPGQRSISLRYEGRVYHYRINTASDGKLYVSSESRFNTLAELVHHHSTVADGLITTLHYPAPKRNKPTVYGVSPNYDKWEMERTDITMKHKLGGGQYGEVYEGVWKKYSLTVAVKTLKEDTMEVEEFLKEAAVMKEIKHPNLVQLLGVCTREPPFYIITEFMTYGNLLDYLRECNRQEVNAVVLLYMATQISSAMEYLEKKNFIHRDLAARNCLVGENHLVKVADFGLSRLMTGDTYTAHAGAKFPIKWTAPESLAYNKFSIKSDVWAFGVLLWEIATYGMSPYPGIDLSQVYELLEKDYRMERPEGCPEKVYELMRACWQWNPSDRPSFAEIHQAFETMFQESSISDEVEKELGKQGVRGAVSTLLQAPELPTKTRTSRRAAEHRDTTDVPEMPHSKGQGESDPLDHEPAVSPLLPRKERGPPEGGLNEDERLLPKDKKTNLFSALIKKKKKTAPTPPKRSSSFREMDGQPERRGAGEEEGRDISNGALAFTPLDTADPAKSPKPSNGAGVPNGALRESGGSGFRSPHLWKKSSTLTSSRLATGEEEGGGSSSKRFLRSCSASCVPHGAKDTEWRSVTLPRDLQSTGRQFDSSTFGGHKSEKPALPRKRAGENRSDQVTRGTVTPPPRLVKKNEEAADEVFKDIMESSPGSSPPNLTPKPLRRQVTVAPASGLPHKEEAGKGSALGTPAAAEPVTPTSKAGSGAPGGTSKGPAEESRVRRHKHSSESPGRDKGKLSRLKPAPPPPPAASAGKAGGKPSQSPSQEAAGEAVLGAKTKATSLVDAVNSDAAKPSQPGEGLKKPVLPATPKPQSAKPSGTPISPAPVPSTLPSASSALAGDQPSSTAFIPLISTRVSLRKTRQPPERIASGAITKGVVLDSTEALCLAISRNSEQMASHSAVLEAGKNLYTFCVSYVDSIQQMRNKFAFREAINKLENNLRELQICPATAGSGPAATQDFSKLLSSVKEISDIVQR
smiles,measurement,setting,value
"O=C(O)C1CCC2(CC1)CC(Nc1ncnc3[nH]c4c(F)cccc4c13)C2 (stereo not shown) [Compound 74, OC(=O)C1CCC2(CC(C2)NC=3N=CN=C4NC=5C(F)=CC=CC5C34)CC1]",concentration at 1440 min,"[1]; male, CD-1, mouse, brain, ip, 10 mg/kg, IP 10 mg/kg, brain, 1440 min, individual animals, read-out: Brain concentration, Final",0 ng/g
same,concentration at 1440 min,"[1]; male, CD-1, mouse, brain, ip, 10 mg/kg, IP 10 mg/kg, brain, 1440 min, mean, read-out: Brain concentrations of cmpd 7827_0016 in mice following IP (10 mg/kg) administration, C",0 ng/g
same,concentration at 5 min,"[1]; male, CD-1, mouse, plasma, ip, 10 mg/kg, IP 10 mg/kg, plasma, 5 min, individual animals, read-out: Plasma concentration, Final",1340 ng/mL
same,concentration at 5 min,"[1]; male, CD-1, mouse, plasma, ip, 10 mg/kg, IP 10 mg/kg, plasma, 5 min, mean, read-out: Plasma concentrations of cmpd 7827_0016 in mice following IP (10 mg/kg) administration, C",1150 ng/mL
same,concentration at 15 min,"[1]; male, CD-1, mouse, plasma, ip, 10 mg/kg, IP 10 mg/kg, plasma, 15 min, individual animals, read-out: Plasma concentration, Final",3720 ng/mL
same,concentration at 15 min,"[1]; male, CD-1, mouse, plasma, ip, 10 mg/kg, IP 10 mg/kg, plasma, 15 min, mean, read-out: Plasma concentrations of cmpd 7827_0016 in mice following IP (10 mg/kg) administration, C",4580 ng/mL
same,concentration at 30 min,"[1]; male, CD-1, mouse, plasma, ip, 10 mg/kg, IP 10 mg/kg, plasma, 30 min, individual animals, read-out: Plasma concentration, Final",4610 ng/mL
same,concentration at 30 min,"[1]; male, CD-1, mouse, plasma, ip, 10 mg/kg, IP 10 mg/kg, plasma, 30 min, mean, read-out: Plasma concentrations of cmpd 7827_0016 in mice following IP (10 mg/kg) administration, C",6390 ng/mL
same,concentration at 60 min,"[1]; male, CD-1, mouse, plasma, ip, 10 mg/kg, IP 10 mg/kg, plasma, 60 min, individual animals, read-out: Plasma concentration, Final",6620 ng/mL
same,concentration at 60 min,"[1]; male, CD-1, mouse, plasma, ip, 10 mg/kg, IP 10 mg/kg, plasma, 60 min, mean, read-out: Plasma concentrations of cmpd 7827_0016 in mice following IP (10 mg/kg) administration, C",6670 ng/mL
same,concentration at 120 min,"[1]; male, CD-1, mouse, plasma, ip, 10 mg/kg, IP 10 mg/kg, plasma, 120 min, mean, read-out: Plasma concentrations of cmpd 7827_0016 in mice following IP (10 mg/kg) administration, C",3050 ng/mL
same,concentration at 240 min,"[1]; male, CD-1, mouse, plasma, ip, 10 mg/kg, IP 10 mg/kg, plasma, 240 min, mean, read-out: Plasma concentrations of cmpd 7827_0016 in mice following IP (10 mg/kg) administration, C",1220 ng/mL
same,concentration at 360 min,"[1]; male, CD-1, mouse, plasma, ip, 10 mg/kg, IP 10 mg/kg, plasma, 360 min, individual animals, read-out: Plasma concentration, Final",1220 ng/mL
same,concentration at 360 min,"[1]; male, CD-1, mouse, plasma, ip, 10 mg/kg, IP 10 mg/kg, plasma, 360 min, mean, read-out: Plasma concentrations of cmpd 7827_0016 in mice following IP (10 mg/kg) administration, C",1110 ng/mL
same,concentration at 480 min,"[1]; male, CD-1, mouse, plasma, ip, 10 mg/kg, IP 10 mg/kg, plasma, 480 min, mean, read-out: Plasma concentrations of cmpd 7827_0016 in mice following IP (10 mg/kg) administration, C",1230 ng/mL
same,concentration at 1440 min,"[1]; male, CD-1, mouse, plasma, ip, 10 mg/kg, IP 10 mg/kg, plasma, 1440 min, mean, read-out: Plasma concentrations of cmpd 7827_0016 in mice following IP (10 mg/kg) administration, C",83.4 ng/mL
same,Cmax,"[1]; male, CD-1, mouse, plasma, ip, 10 mg/kg i.p.",6670 ng/mL
same,AUC,"[1]; male, CD-1, mouse, plasma, ip, 10 mg/kg i.p., read-out: plasma AUC (converted)",24200 ng·h/mL
same,"CSF concentration, Final","[1]; IP 10 mg/kg, 5 min, individual animals",0 ng/mL and 47.1 ng/mL
same,"CSF concentration, Final","[1]; IP 10 mg/kg, 15 min, individual animals",76.0 ng/mL and 109 ng/mL and 26.8 ng/mL
same,"CSF concentration, Final","[1]; IP 10 mg/kg, 30 min, individual animals",63.1 ng/mL and 31.1 ng/mL and 148 ng/mL
same,"CSF concentration, Final","[1]; IP 10 mg/kg, 60 min, individual animals",333 ng/mL and 43.7 ng/mL and 98.0 ng/mL
same,"CSF concentration, Final","[1]; IP 10 mg/kg, 120 min, individual animals",23.6 ng/mL and 138.9 ng/mL and 195.0 ng/mL
same,"CSF concentration, Final","[1]; IP 10 mg/kg, 240 min, individual animals",8.55 ng/mL and 16.8 ng/mL and 52.8 ng/mL
same,"CSF concentration, Final","[1]; IP 10 mg/kg, 360 min, individual animals",72.8 ng/mL and 71.4 ng/mL
same,"CSF concentration, Final","[1]; IP 10 mg/kg, 480 min, individual animals",16.7 ng/mL and 5.28 ng/mL and 0 ng/mL
same,"CSF concentration, Final","[1]; IP 10 mg/kg, 1440 min, individual animals",32.4 ng/mL and 0 ng/mL
same,"Brain concentration, Final","[1]; IP 10 mg/kg, brain, 5 min, individual animals",63.0 ng/g and 61.5 ng/g
same,"Brain concentration, Final","[1]; IP 10 mg/kg, brain, 15 min, individual animals",140 ng/g and 112 ng/g
same,"Brain concentration, Final","[1]; IP 10 mg/kg, brain, 30 min, individual animals",168 ng/g and 291 ng/g
same,"Brain concentration, Final","[1]; IP 10 mg/kg, brain, 60 min, individual animals",124 ng/g and 174 ng/g
same,"Brain concentration, Final","[1]; IP 10 mg/kg, brain, 120 min, individual animals",40.2 ng/g and 117 ng/g and 89.0 ng/g
same,"Brain concentration, Final","[1]; IP 10 mg/kg, brain, 240 min, individual animals",26.0 ng/g and 26.4 ng/g
same,"Brain concentration, Final","[1]; IP 10 mg/kg, brain, 360 min, individual animals",33.7 ng/g and 18.5 ng/g
same,"Brain concentration, Final","[1]; IP 10 mg/kg, brain, 480 min, individual animals",9.82 ng/g and 13.1 ng/g and 57.1 ng/g
same,"Plasma concentration, Final","[1]; IP 10 mg/kg, plasma, 5 min, individual animals",937 ng/mL and 1166 ng/mL
same,"Plasma concentration, Final","[1]; IP 10 mg/kg, plasma, 15 min, individual animals",5726 ng/mL and 4307 ng/mL
same,"Plasma concentration, Final","[1]; IP 10 mg/kg, plasma, 30 min, individual animals",6345 ng/mL and 8215 ng/mL
same,"Plasma concentration, Final","[1]; IP 10 mg/kg, plasma, 60 min, individual animals",5152 ng/mL and 8232 ng/mL
same,"Plasma concentration, Final","[1]; IP 10 mg/kg, plasma, 120 min, individual animals",1532 ng/mL and 4227 ng/mL and 3400 ng/mL
same,"Plasma concentration, Final","[1]; IP 10 mg/kg, plasma, 240 min, individual animals",751 ng/mL and 1518 ng/mL and 1407 ng/mL
same,"Plasma concentration, Final","[1]; IP 10 mg/kg, plasma, 360 min, individual animals",1143 ng/mL and 957 ng/mL
same,"Plasma concentration, Final","[1]; IP 10 mg/kg, plasma, 480 min, individual animals",516 ng/mL and 763 ng/mL and 2398 ng/mL
same,"Plasma concentration, Final","[1]; IP 10 mg/kg, plasma, 1440 min, individual animals",250 ng/mL and 0 ng/mL
same,binding to EP1 receptor,[2],no binding
same,remaining activity at 10 µM,[3],63%
